{"source": "patent US4088642A", "about": "(priority 1973, dated 1978)", "key": {"Storage stability": {"test": "Storage stability", "type": "physicochemical"}, "[1]": {"test": "Decomposition rate studies (half-life of azo and peroxide portions)", "type": "physicochemical", "description": "The temperatures at which the polymerizations are carried out will depend upon the polymerization technique; the monomer, solvent or suspending medium; and the physical properties desired in the polymer; but most of all upon the azo-peroxide initiator and the method chosen to decompose the azo or peroxide portion of the initiator. Activation of the peroxide portion by amines, reducing agents, transition metal carboxylates, etc., can be carried out from below -20° C up to its normal decomposition temperature. The same is true for activation of the peroxide or azo portions by irradiation. Irradiation sources can be ultra-violet radiation, and in the presence of photosensitizers (e.g. certain azo dyes) visible light can also be used. The temperatures used for the thermal decompositions of the azo or peroxide portions will depend upon the thermal stability (half-life) of the azo or peroxide grouping in the molecule. These half-lives can be determined quantitatively for each azo-peroxide compound by conventional methods i.e. gas evolution, and iodometric, ultra-violet, or gas chromatographic analytical techniques to determine the rate of disappearance of each portion (azo or peroxide) at any given temperature. (Such half-life data were determined for the compounds made in Examples 1 to 5.) […]\nIts infrared spectrum was in agreement with the above structure showing both peresters and acid chloride carbonyl absorption bands. […] Apparently, the perester undergoes induced decomposition at this relatively high temperature."}}}
{"smiles": "CC(C#N)(CCC(=O)OOC(C)(C)C)N=NC(C)(C#N)CCC(=O)OOC(C)(C)C", "note": "(stereo not drawn) [Example 4, Di-t-butylperoxy Ester of cis-4,4'-Azobis(4-cyanovalericacid)]", "values": [{"measurement": "change of infrared spectrum on standing (room temperature stability)", "setting": "Storage stability; two days at 21° C", "value": "not changed"}, {"measurement": "t1/2 of azo portion", "setting": "[1]; 80° C, trichlorobenzene", "value": "≈ 92 minutes"}, {"measurement": "t1/2 of perester portion", "setting": "[1]; 80° C, trichlorobenzene", "value": "≈ 319 minutes"}]}
{"smiles": "CC(C#N)(CCC(=O)Cl)N=NC(C)(C#N)CCC(=O)OOC(C)(C)C", "note": "(stereo not drawn) [Example 5, mono-t-Butylperoxy Ester of the Diacid Chloride of trans-4,4'-Azobis(4-cyanovaleric acid)]", "values": [{"measurement": "decomposition order of azo and perester linkages", "setting": "[1]; 90° C, dioctyl phthalate", "value": "decompose simultaneously"}]}
{"smiles": "CC1(C#N)CCC(=O)OOC(=O)CCC(C)(C#N)N=N1", "note": "(stereo not shown) [Example 1, 6,9-Dimethyl-6,9-dicyano-Δ^7,1,2-dioxa-7,8-diazacyclododecan-3,12-dione]", "values": [{"measurement": "storage stability", "setting": "Storage stability", "value": "more than one month"}, {"measurement": "t1/2 of azo portion", "setting": "[1]; 70° C, o-dichlorobenzene", "value": "≈ 236 minutes"}, {"measurement": "t1/2 of diacyl peroxide portion", "setting": "[1]; 70° C, o-dichlorobenzene", "value": "≈ 99 minutes"}]}
